Structures are written as SMILES. Active and inactive are the calls of the source. The calls are words filed in the database; no cut-off is given here.

The test system of this experiment is Vaccinia virus. As to the kind of experiment: Antiviral activity against vaccinia virus infected in HEL cells assessed as reduction of virus-induced cytopathogenicity. Type of experiment: functional, organism-based. To be noted: Orthopoxvirus vaccinia. (In general: Protection from cytopathic effect is a common read-out in antiviral testing.)
Turning to `COc1cc(NC(C)CCCNC(=O)NC2CCCCC2)c2ncccc2c1` (stereo not given), the result was inactive. Consider `COc1cc(NC(C)CCCNC(=O)NCC2CCCCC2)c2ncccc2c1` (stereo not given), for which the outcome was inactive. With `COc1cc(NC(C)CCCNC(=O)NC(c2ccccc2)c2ccccc2)c2ncccc2c1` (stereo not given) the entry was “inactive”; with `CCN(CC)C(=O)NCCCC(C)Nc1cc(OC)cc2cccnc12` (stereo not given), “inactive”. As to `COc1cc(NC(C)CCCNC(=O)NCCc2ccccc2)c2ncccc2c1` (stereo not given), the outcome was inactive.

With `COc1cc(NC(C)CCCNC(=O)NC2CCCC2)c2ncccc2c1` (stereo not given), the result was inactive. Next, `COc1cc(NC(C)CCCNC(=O)NCc2ccncc2)c2ncccc2c1` (stereo not given): “inactive”; `COc1cc(NC(C)CCCNC(=O)n2nnc3ccccc32)c2ncccc2c1` (stereo not given) [PRIMAQUINE BENZOTRIAZOLIDE]: “inactive”. With `COc1cc(NC(C)CCCNC(=O)NCc2ccccc2)c2ncccc2c1` (stereo not given) the entry was “inactive”; with `COc1cc(NC(C)CCCNC(=O)N(C2CCCCC2)C2CCCCC2)c2ncccc2c1` (stereo not given), “inactive”.

The values are drawn from ChEMBL document CHEMBL1156695, “The novel primaquine derivatives of N-alkyl, cycloalkyl or aryl urea: synthesis, cytostatic and antiviral activity evaluations” (Eur J Med Chem, 2008).
